Experimental data as given in patent EP0407651A2, “Use of 1,3-diisobutyl-8-methylxanthine as a bronchodilator and antiallergy agent” (J. URIACH & CIA. S.A., priority 1989, dated 1991).

Tests used:
[1] = tested on: Egg albumin-induced bronchospasm in sensitized guinea pigs; assay: Egg albumin-induced bronchospasm in sensitized guinea pigs (Konzett and Rössler); assay type: in vivo; conditions: egg albumin 0.06% w/v, 1 mL/Kg i.v., one minute after test compound
Protocol: The experimental procedure of Konzett and Rössler was followed (Arch. Exp. Pathol.Pharmacol. 1940, 195, 71). A single intravenous injection of 1 mL/Kg of egg albumin (0.06%, w/v) was given to sensitized animals one minute after intravenous administration of UR-6032 at different concentrations.

[2] = tested on: rat peritoneal mast cell preparations; assay: Histamine release induced by compound 48/80 in rat mast cell preparations; assay type: cell-based; conditions: 20 min, 1 mM test compound, compound 48/80 10⁻⁶ M, 37°C, read-out: Histamine release % inhib. at 1 mM
Protocol: Anaesthetized rats were bled by cardiac puncture and then 10 mL of Tyrode's-gel solution (0.1% gelatine in Tyrode's buffer, pH 7.2) containing 50 mcg heparin was injected into the peritoneal cavity. Alter a gentle massage of the abdomen, the peritoneal cell suspension was harvested. Mast cells were suspended in Tyrode's solution (10⁶ cells/mL). Aliquots of 0.2 mL of the mast cell suspension were incubated at 37°C for 20 minutes with 10 mcL of compound 48/80 (10⁻⁶ M final concentration), a potent histamine release inducer. The reaction was stopped by introducing the tubes in a ice-ethanol bath. The cells were sedi-mented by centrifugation and the histamine in the supernatant was determined by the fluorimetric method of May (J. Allergy, 1970, 46, 12). The sedimented pellets were treated with 0.1 N HCl at 100°C to liberate the non-released histamine and to determine it by the same method of May. Test compounds were added to the incubation medium dissolved in Tyrode's buffer at different concentrations (final volume: 1 mL). Control samples contained the same volume of Tyrode's buffer. The histamine release in the control samples was taken as 100%, and the percentage of the histamine release inhibition of test samples was calculated with respect to controls. (Table 3).

[3] = tested on: Histamine-induced bronchospasm in anaesthetized guinea pigs; assay: Histamine-induced bronchospasm in anaesthetized guinea pigs (Konzett and Rössler); assay type: in vivo; conditions: histamine 10 mcg/Kg i.v., test compound i.p., maximum inhibitory effect at 10, 30, 60 min
Protocol: This test was performed in anaesthetized animals according to the method of Konzett and Rössler (Arch. Exp. Pathol.Pharmacol. 1940, 195, 71). The activity was determined by calculating the dose of the active compound required to produce 50% inhibition of the bronchospasm (ID₅₀) (Table 1). Histamine was given intravenously at 10 mcg/Kg, before and 10, 30 and 60 minutes after intraperitoneal administration of test compounds. Maximum inhibitory effects were taken for calculation of ID₅₀ values.

[4] = tested on: Passive cutaneous anaphylaxis reaction (PCA); assay: Passive cutaneous anaphylaxis reaction (PCA) in the rat; assay type: in vivo; conditions: 30 minutes before egg albumin and Evans' blue challenge
Protocol: The animals were passively sensitized by intradermal injection of 0.1 mL of five-fold diluted rat reagenic antiserum. Injections were made at 4 locations on the shaved back skin and 48 h later the test drug was administered intraperitoneally. Thirty minutes later, the animals were challenged by intravenous injection of egg albumin and Evans' blue dye. The dermal reaction was measured colorimetrically by the method of Harata (J.Pharm.Pharmac., 1971, 23, 218) as the extent of the blueing reaction at the sensitized intradermal injection site, and the percent inhibition values with respect to controls were calculated (Table 3).

[5] = tested on: Isolated guinea pig trachea; assay: Isolated guinea pig trachea relaxation (spontaneous tonus, organ bath); assay type: cell-based; conditions: Cavia porcellus; 50% relaxation of spontaneous tonus; relaxation by 1 mcM isoprenaline = 100%; read-out: Guinea pig trachea EC₅₀
Protocol: This in vitro test was carried out according to the method of Emmerson and Mackay (J. Pharm. Pharmacol. 1979, 31, 798). The trachea was excised from guinea pigs, placed in Krebs Henseleit's solution at 37°C and gassed with 95% O₂ and 5% CO₂. The trachea strip was mounted in an organ bath and attached to a tension transducer preloaded with […]. Test compounds were cumulatively added to the organ bath and concentrations causing 50% relaxation of the spontaneous tonus of the tracheal tissue (EC₅₀) were calculated (Table 1). The relaxation induced by 1 mcM isoprenaline was taken as 100%.

[6] = Acute oral toxicity in rats; assay type: in vivo; conditions: both sexes rats
[7] = tested on: Histamine aerosol-induced bronchospasm; assay: Histamine aerosol-induced bronchospasm in conscious guinea pigs (protection from death); assay type: in vivo; conditions: for Histamine bronchospasm Hist. aerosol PC₅₀ (inhal) / Histamine bronchospasm Hist. aerosol PD₅₀ (oral): conscious guinea pigs; for Histamine bronchospasm Hist. aerosol PC₅₀ (inhal): ethanolic solution nebulized 1 mL/min for 2 min, histamine challenge 3 min later, concentration protecting 50% from lethality; for Histamine bronchospasm Hist. aerosol PD₅₀ (oral): one hour before histamine aerosol (0.2%), dose protecting 50% of animals from death; for Protection from death % / Protection from death n/N: formulation B by inhalation; for Protection from death n/N: survivors versus total number of animals
Protocol: This test is based on the methods of Van P+roosdif-Hartzema (Inter. Ppharmacodynamic 1958, 115, 322) and Loew (J. Pharmac.Exp.Ther. 1945, 83, 120) with slight modifications. Thus, conscious guinea pigs were subjected to inhalation of histamine (0.2% aqueous solution) nebulized by an ultrasonic device (DeVilvis™, Ultra-Neb 99) during 30 seconds in a cylindric plastic chamber of 15 liters of volume, at a rate of 1 mL/min. Test compounds were given orally, one hour before the challenge of histamine, and the dose needed to protect from death 50% of the animals was determined (PD₅₀) (Table 1).
Using the same model, test compounds were also given by inhalation. They were dissolved in ethanol at different concentrations (0.45 mM to 28mM) and aerosolized by the ultrasonic nebulizer mentioned above at a rate of 1 mL/min, during 2 minutes. Three minutes later, the animals were subjected to the challenge of histamine and PC₅₀ values were determined (Table 1). Controls were subjected to inhalation of the vehicle (ethanol). PC₅₀ value is defined as the concentration of test compound in the ethanolic solution that protects 50% of animals from lethality when nebulized as indicated above.
Finally, studies have been made subjecting the animals to inhalation of one or more puffs of 5 mg/mL of 1,3-diisobutyl-8-methylxanthine (UR-6032) solution formulation B (see Example 1). Animals were forced to inhale UR-6032 for 5 minutes into the cylindric plastic chamber before the challenge with ultrasonic nebulized histamine (see above) and protection from death with respect to controls was determined (Table 2).

SMILES | Egg albumin bronchospasm ID₅₀ [1] | inhibition at 1000 µM [2] [%] | Histamine bronchospasm Hist. i.v. ID₅₀ [3] | PCA % inhibition at 2.5 mg/Kg,i.p. [4] [%] | EC50 [5] [nM] | acute oral toxicity [6] [mg/kg] | Histamine bronchospasm Hist. aerosol PC₅₀ (inhal) [7] | Histamine bronchospasm Hist. aerosol PD₅₀ (oral) [7] [mg/kg] | Protection from death % ([7]; 1 puff) [%] | Protection from death n/N ([7]; 1 puff) | Protection from death % ([7]; 2 puffs) [%] | Protection from death n/N ([7]; 2 puffs) | Protection from death % ([7]; 3 puffs) [%] | Protection from death n/N ([7]; 3 puffs) | active doses given by inhalation ([7]; inhalation) [mg/animal]
Cc1nc2c([nH]1)c(=O)n(CC(C)C)c(=O)n2CC(C)C [UR-6032, 1,3-diisobutyl-8-methylxanthine] | 0.5-1 mg/Kg,i.p. | 56 | 0.36 mg/Kg,i.p. | 39 | 100 | 50 | 0.5 mM | 1 | 80 | 4/5 | 100 | 3/3 | 100 | 3/3 | < 0.5
CC(C)Cn1c(=O)n(C)c(=O)c2[nH]cnc21 [IBMX, 1-methyl-3-isobutylxanthine] |  | 37 | 2.50 mg/Kg,i.p. | 86 | 1100 |  | ^b 15-20 mM |  |  |  |  |  |  |  | 
Cn1c(=O)c2[nH]cnc2n(C)c1=O [Theophylline, 1,3-dimethylxanthine] |  | 25 | 4.90 mg/Kg,i.p. | 8 | 31000 |  | 25 mM | > 100 |  |  |  |  |  |  | 
